Data taken from ChEMBL document CHEMBL1201862, “PubChem BioAssay data set” (2004).
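Protocol summary: plate cells (96-well), add compound at 5 concentrations, incubate 48 h, interpolate endpoints linearly. The concentration for 50% growth inhibition is given as GI50.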 Calls of active or inactive are those of the source. No stated cut-off is given here; in the data, active = GI50 up to about 1.1 µM and inactive = higher.

What was measured:
Test in all cases: growth of human tumour cells (NCI), 48 h
[1] = test system: HCT-116
[2] = test system: EKVX
[3] = test system: SF-295
[4] = test system: SF-539
[5] = test system: CCRF-CEM
[6] = test system: Malme-3M
[7] = test system: NCI-H226
[8] = test system: CAKI-1
[9] = test system: RPMI-8226
[10] = test system: SK-MEL-2
[11] = test system: MOLT-4
[12] = test system: SN12C
[13] = test system: OVCAR-3
[14] = test system: HOP-92
[15] = test system: 786-0
[16] = test system: ACHN
[17] = test system: UACC-257
[18] = test system: SR
[19] = test system: MCF7
[20] = test system: UACC-62
[21] = test system: OVCAR-5
[22] = test system: M14
[23] = test system: MDA-MB-231
[24] = test system: SK-OV-3
[25] = test system: SK-MEL-28
[26] = test system: TK-10
[27] = test system: A498
[28] = test system: HT-29
[29] = test system: OVCAR-4
[30] = test system: K562
[31] = test system: UO-31
[32] = test system: DU-145
[33] = test system: IGROV-1
[34] = test system: OVCAR-8
[35] = test system: SNB-75
[36] = test system: SNB-19
[37] = test system: A549
[38] = test system: NCI-H522
[39] = test system: NCI/ADR-RES
[40] = test system: SK-MEL-5
[41] = test system: HL-60
[42] = test system: NCI-H460
[43] = test system: RXF 393
[44] = test system: U-251
[45] = test system: COLO 205
[46] = test system: HOP-62
[47] = test system: KM12
[48] = test system: NCI-H23
[49] = test system: HCT-15
[50] = test system: SW-620
[51] = test system: LOX IMVI
[52] = test system: T47D
[53] = test system: PC-3
[54] = test system: MDA-N
[55] = test system: SF-268
[56] = test system: MDA-MB-435
[57] = test system: Hs-578T
[58] = test system: BT-549
[59] = test system: HCC 2998

Cc1cc(C)c(S(=O)(=O)N(CCCN)OCCCON(CCCN)S(=O)(=O)c2c(C)cc(C)cc2C)c(C)c1
GI50 [1]: 1.75 µM (inactive)
GI50 [2]: 5.92 µM (inactive)
GI50 [3]: 7.66 µM (inactive)
GI50 [4]: 2.17 µM (inactive)
GI50 [5]: 2.3 µM (inactive)
GI50 [6]: 0.879 µM (active)
GI50 [7]: 2.2 µM (inactive)
GI50 [8]: 14.2 µM (inactive)
GI50 [9]: 2.38 µM (inactive)
GI50 [10]: 1.79 µM (inactive)
GI50 [11]: 2.03 µM (inactive)
GI50 [12]: 3.91 µM (inactive)
GI50 [13]: 2.03 µM (inactive)
GI50 [14]: 1.98 µM (inactive)
GI50 [15]: 2.33 µM (inactive)
GI50 [16]: 15.3 µM (inactive)
GI50 [17]: 1.82 µM (inactive)
GI50 [18]: 2.07 µM (inactive)
GI50 [19]: 1.82 µM (inactive)
GI50 [20]: 2.52 µM (inactive)
GI50 [21]: 2.2 µM (inactive)
GI50 [22]: 1.75 µM (inactive)
GI50 [23]: 1.77 µM (inactive)
GI50 [24]: 1.82 µM (inactive)
GI50 [25]: 1.91 µM (inactive)
GI50 [26]: 4.5 µM (inactive)
GI50 [27]: 3.38 µM (inactive)
GI50 [28]: 1.67 µM (inactive)
GI50 [29]: 2.29 µM (inactive)
GI50 [30]: 2.69 µM (inactive)
GI50 [31]: 16.7 µM (inactive)
GI50 [32]: 1.71 µM (inactive)
GI50 [33]: 1.98 µM (inactive)
GI50 [34]: 3.68 µM (inactive)
GI50 [35]: 1.86 µM (inactive)
GI50 [36]: 1.75 µM (inactive)
GI50 [37]: 1.77 µM (inactive)
GI50 [38]: 1.47 µM (inactive)
GI50 [39]: 18.9 µM (inactive)
GI50 [40]: 4.55 µM (inactive)
GI50 [41]: 1.91 µM (inactive)
GI50 [42]: 1.67 µM (inactive)
GI50 [43]: 4.6 µM (inactive)
GI50 [44]: 1.64 µM (inactive)
GI50 [45]: 1.78 µM (inactive)
GI50 [46]: 1.91 µM (inactive)
GI50 [47]: 1.9 µM (inactive)
GI50 [48]: 2.18 µM (inactive)
GI50 [49]: 18.2 µM
GI50 [50]: 2.49 µM (inactive)
GI50 [51]: 1.87 µM (inactive)
GI50 [52]: 1.61 µM (inactive)
GI50 [53]: 1.82 µM (inactive)
GI50 [54]: 1.78 µM (inactive)
GI50 [55]: 1.42 µM (inactive)
GI50 [56]: 2.03 µM (inactive)
GI50 [57]: 1.49 µM (inactive)
GI50 [58]: 3.1 µM (inactive)

N#C/C(N)=C(C#N)/N=C/Nc1ccccc1N
GI50 [1]: > 100 µM (inactive)
GI50 [2]: > 100 µM (inactive)
GI50 [3]: > 100 µM (inactive)
GI50 [4]: > 100 µM (inactive)
GI50 [5]: > 100 µM (inactive)
GI50 [6]: > 100 µM (inactive)
GI50 [7]: > 100 µM (inactive)
GI50 [8]: > 100 µM (inactive)
GI50 [9]: > 100 µM (inactive)
GI50 [10]: > 100 µM (inactive)
GI50 [11]: > 100 µM (inactive)
GI50 [12]: > 100 µM (inactive)
GI50 [13]: > 100 µM (inactive)
GI50 [15]: > 100 µM (inactive)
GI50 [16]: > 100 µM (inactive)
GI50 [17]: > 100 µM (inactive)
GI50 [18]: > 100 µM (inactive)
GI50 [19]: > 100 µM (inactive)
GI50 [20]: > 100 µM (inactive)
GI50 [21]: > 100 µM (inactive)
GI50 [22]: > 100 µM (inactive)
GI50 [23]: > 100 µM (inactive)
GI50 [24]: > 100 µM (inactive)
GI50 [25]: > 100 µM (inactive)
GI50 [26]: > 100 µM (inactive)
GI50 [27]: > 100 µM (inactive)
GI50 [28]: > 100 µM (inactive)
GI50 [29]: > 100 µM (inactive)
GI50 [30]: > 100 µM (inactive)
GI50 [31]: > 100 µM (inactive)
GI50 [32]: > 100 µM (inactive)
GI50 [59]: > 100 µM (inactive)
GI50 [33]: > 100 µM (inactive)
GI50 [34]: > 100 µM (inactive)
GI50 [35]: > 100 µM (inactive)
GI50 [36]: > 100 µM (inactive)
GI50 [37]: > 100 µM (inactive)
GI50 [38]: > 100 µM (inactive)
GI50 [39]: > 100 µM (inactive)
GI50 [40]: > 100 µM (inactive)
GI50 [41]: > 100 µM (inactive)
GI50 [42]: > 100 µM (inactive)
GI50 [44]: > 100 µM (inactive)
GI50 [45]: > 100 µM (inactive)
GI50 [46]: > 100 µM (inactive)
GI50 [47]: > 100 µM (inactive)
GI50 [48]: > 100 µM (inactive)
GI50 [49]: > 100 µM
GI50 [50]: > 100 µM (inactive)
GI50 [51]: > 100 µM (inactive)
GI50 [52]: > 100 µM (inactive)
GI50 [53]: > 100 µM (inactive)
GI50 [54]: > 100 µM (inactive)
GI50 [55]: > 100 µM (inactive)
GI50 [56]: > 100 µM (inactive)
GI50 [57]: > 100 µM (inactive)
GI50 [58]: > 100 µM (inactive)

CCC1=C(CC2NCCc3cc(OC)c(OC)cc32)CC2c3ccccc3CCN2C1 (configuration not stated)
GI50 [1]: 8.55 µM (inactive)
GI50 [2]: 22.2 µM (inactive)
GI50 [3]: 20.4 µM (inactive)
GI50 [4]: 9.55 µM (inactive)
GI50 [5]: 10.4 µM (inactive)
GI50 [6]: 14.6 µM (inactive)
GI50 [7]: 19 µM (inactive)
GI50 [8]: 22.4 µM (inactive)
GI50 [9]: 13.8 µM (inactive)
GI50 [10]: 15.8 µM (inactive)
GI50 [11]: 15.3 µM (inactive)
GI50 [12]: 21.7 µM (inactive)
GI50 [13]: 33.4 µM (inactive)
GI50 [14]: 12.8 µM (inactive)
GI50 [15]: 14 µM (inactive)
GI50 [16]: 31.5 µM (inactive)
GI50 [17]: 18.1 µM (inactive)
GI50 [18]: 10.1 µM (inactive)
GI50 [19]: 18.7 µM (inactive)
GI50 [20]: 15.5 µM (inactive)
GI50 [21]: 12.4 µM (inactive)
GI50 [22]: 14.3 µM (inactive)
GI50 [23]: 16.8 µM (inactive)
GI50 [24]: > 100 µM (inactive)
GI50 [25]: 13.9 µM (inactive)
GI50 [26]: 26.7 µM (inactive)
GI50 [27]: 13.2 µM (inactive)
GI50 [28]: 5.56 µM (inactive)
GI50 [29]: 22.5 µM (inactive)
GI50 [30]: 10.1 µM (inactive)
GI50 [31]: 15 µM (inactive)
GI50 [32]: 38.5 µM (inactive)
GI50 [33]: 21.2 µM (inactive)
GI50 [34]: 37.5 µM (inactive)
GI50 [35]: 19.8 µM (inactive)
GI50 [36]: 36.9 µM (inactive)
GI50 [37]: 26.4 µM (inactive)
GI50 [38]: 14.8 µM (inactive)
GI50 [39]: 29.6 µM (inactive)
GI50 [40]: 14.8 µM (inactive)
GI50 [41]: 9.06 µM (inactive)
GI50 [42]: 12.6 µM (inactive)
GI50 [43]: 19.8 µM (inactive)
GI50 [44]: 13.7 µM (inactive)
GI50 [45]: 10.2 µM (inactive)
GI50 [46]: 21.7 µM (inactive)
GI50 [47]: 23.7 µM (inactive)
GI50 [49]: 37.9 µM
GI50 [50]: 13.8 µM (inactive)
GI50 [51]: 13.5 µM (inactive)
GI50 [52]: 20.7 µM (inactive)
GI50 [53]: 16.2 µM (inactive)
GI50 [54]: 14 µM (inactive)
GI50 [55]: 31.5 µM (inactive)
GI50 [56]: 13.1 µM (inactive)
GI50 [57]: 15.4 µM (inactive)
GI50 [58]: 49.4 µM (inactive)
